Assay results taken from patent US7745495B2, “Pyridine ketones with herbicidal effect” (Syngenta Crop Protection, Inc., priority 2004, dated 2010).

How the values were obtained:
Format in all cases: in vivo
Abutilon [1] = assay: Pre-emergence herbicidal action; details: rating 10=total damage, 0=no action; for Pre-emergent Herbicidal Activity: Abutilon: Table B3; for Pre-emergence herbicidal action: Abutilon: 250 g/ha, after 3 weeks
Method: (§1) Monocotyledonous and dicotyledonous test plants are sown in standard soil in plastic pots. […] The test plants are then grown in a greenhouse under optimum conditions. After a test duration of 3 weeks, the test is evaluated in accordance with a scale of ten ratings (10=total damage, 0=no action). Ratings of from 10 to 7 (especially from 10 to 8) indicate good to very good herbicidal action.

Amaranthus = assay: Pre-emergence herbicidal action; details: rating 10=total damage, 0=no action; for Pre-emergent Herbicidal Activity: Amaranthus: Table B3; for Pre-emergence herbicidal action: Amaranthus: 250 g/ha, after 3 weeks
Method: as §1

Echinochloa = assay: Pre-emergence herbicidal action; details: rating 10=total damage, 0=no action; for Pre-emergent Herbicidal Activity: Echinochloa: Table B3; for Pre-emergence herbicidal action: Echinochloa: 250 g/ha, after 3 weeks
Method: as §1

Corn = assay: Pre-emergent herbicidal activity on crop plant; details: for Pre-emergent Herbicidal Activity: Corn: Table B3, crop plant, rating 10=total damage, 0=no action
Method: as §1
(§2) In the following Table B3, the pre-emergent herbicidal activity of compound H-14 according to the invention is compared with 4 compounds according to the prior art. All compounds are structurally identical except for the nature of the alkylene linker attached to the pyridine ring.

Soya = assay: Pre-emergent herbicidal activity on crop plant; details: for Pre-emergent Herbicidal Activity: Soya: Table B3, crop plant, rating 10=total damage, 0=no action
Method: as §1, §2

Brachiaria = assay: Pre-emergent herbicidal activity; details: Table B3, rating 10=total damage, 0=no action
Method: as §1, §2

Setaria [2] = assay: Pre-emergent herbicidal activity; details: Table B3, rating 10=total damage, 0=no action
Method: as §1, §2

Digitaria [3] = assay: Pre-emergence herbicidal action; details: 250 g/ha; after 3 weeks; rating 10=total damage, 0=no action
Method: as §1

Panicum [4] = assay: Pre-emergence herbicidal action; details: 250 g/ha; after 3 weeks; rating 10=total damage, 0=no action
Method: as §1

Chenopodium [5] = assay: Pre-emergence herbicidal action; details: 250 g/ha; after 3 weeks; rating 10=total damage, 0=no action
Method: (§3) Monocotyledonous and dicotyledonous test plants are sown in standard soil in plastic pots. Immediately after sowing, the test compounds, in the form of an aqueous suspension (prepared from a 25% wettable powder (Example F3, b) according to WO 97/34485) or in the form of an emulsion (prepared from a 25% emulsifiable concentrate (Example F1, c)), are applied by spraying a concentration corresponding to 125 g or 250 g of active ingredient/ha (500 liter of water/ha). The test plants are then grown in a greenhouse under optimum conditions. After a test duration of 3 weeks, the test is evaluated in accordance with a scale of ten ratings (10=total damage, 0=no action). Ratings of from 10 to 7 (especially from 10 to 8) indicate good to very good herbicidal action.

Stellaria [6] = assay: Pre-emergence herbicidal action; details: 250 g/ha; after 3 weeks; rating 10=total damage, 0=no action
Method: as §3

Abutilon [7] = assay: Post-emergence herbicidal action; details: 250 g/ha; 4- to 6-leaf stage; after about 18 days; rating 10=total damage, 0=no action
Method: (§4) In a greenhouse, monocotyledonous and dicotyledonous test plants are grown in standard soil in plastic pots and at the 4- to 6-leaf stage are sprayed with an aqueous suspension of the test compounds of formula I prepared from a 25% wettable powder (Example F3, b) according to WO 97/34485) or with an emulsion of the test compounds of formula I prepared from a 25% emulsifiable concentrate (Example F1, c) according to WO 97/34485), in a concentration corresponding to 125 g or 250 g of active ingredient/ha (500 liter of water/ha). The test plants are then grown on in a greenhouse under optimum conditions. After a test duration of about 18 days, the test is evaluated in accordance with a scale of ten ratings (10=total damage, 0=no action). Ratings of from 10 to 7 (especially from 10 to 8) indicate good to very good herbicidal action.

Chenopodium [8] = assay: Post-emergence herbicidal action; details: 250 g/ha; 4- to 6-leaf stage; after about 18 days; rating 10=total damage, 0=no action
Method: as §4

Digitaria [9] = assay: Post-emergence herbicidal action; details: 250 g/ha; 4- to 6-leaf stage; after about 18 days; rating 10=total damage, 0=no action
Method: as §4

Ipomea = assay: Post-emergence herbicidal action; details: 250 g/ha; 4- to 6-leaf stage; after about 18 days; rating 10=total damage, 0=no action
Method: as §4

Panicum [10] = assay: Post-emergence herbicidal action; details: 250 g/ha; 4- to 6-leaf stage; after about 18 days; rating 10=total damage, 0=no action
Method: as §4

Setaria [11] = assay: Post-emergence herbicidal action; details: 250 g/ha; 4- to 6-leaf stage; after about 18 days; rating 10=total damage, 0=no action
Method: as §4

Sinapis = assay: Post-emergence herbicidal action; details: 250 g/ha; 4- to 6-leaf stage; after about 18 days; rating 10=total damage, 0=no action
Method: as §4

Stellaria [12] = assay: Post-emergence herbicidal action; details: 250 g/ha; 4- to 6-leaf stage; after about 18 days; rating 10=total damage, 0=no action
Method: as §4

[13] = pre-emergent, 30 and 15 g/ha, result in words on Table B3

Row | SMILES | Pre-emergent Herbicidal Activity: Abutilon (Abutilon [1]; 15 g/ha) | Pre-emergent Herbicidal Activity: Abutilon (Abutilon [1]; 30 g/ha) | Pre-emergent Herbicidal Activity: Amaranthus (Amaranthus; 15 g/ha) | Pre-emergent Herbicidal Activity: Amaranthus (Amaranthus; 30 g/ha) | Pre-emergent Herbicidal Activity: Echinochloa (Echinochloa; 30 g/ha) | Pre-emergence herbicidal action: Abutilon (Abutilon [1]) | Pre-emergence herbicidal action: Amaranthus (Amaranthus) | Pre-emergence herbicidal action: Digitaria (Digitaria [3]) | Pre-emergence herbicidal action: Echinochloa (Echinochloa) | Pre-emergence herbicidal action: Panicum (Panicum [4]) | Pre-emergence herbicidal action: Chenopodium (Chenopodium [5]) | Pre-emergence herbicidal action: Stellaria (Stellaria [6]) | Post-emergence herbicidal action: Abutilon (Abutilon [7]) | Post-emergence herbicidal action: Chenopodium (Chenopodium [8]) | Post-emergence herbicidal action: Digitaria (Digitaria [9]) | Post-emergence herbicidal action: Ipomea (Ipomea) | Post-emergence herbicidal action: Panicum (Panicum [10]) | Post-emergence herbicidal action: Setaria (Setaria [11]) | Post-emergence herbicidal action: Sinapis (Sinapis) | Post-emergence herbicidal action: Stellaria (Stellaria [12]) | also measured
1 | COC/C=C\c1nc(C(F)(F)F)ccc1C(=O)C1C(=O)C2CCC(C2)C1=O (stereo not drawn) [C] | 3 | 4 | 3 | 5 | 3 |  |  |  |  |  |  |  |  |  |  |  |  |  |  |  | Pre-emergent Herbicidal Activity: Echinochloa (Echinochloa; 15 g/ha): 3; Pre-emergent Herbicidal Activity: Corn (Corn; 15 g/ha): 0; Pre-emergent Herbicidal Activity: Corn (Corn; 30 g/ha): 0; Pre-emergent Herbicidal Activity: Soya (Soya; 15 g/ha): 0; Pre-emergent Herbicidal Activity: Soya (Soya; 30 g/ha): 0; Pre-emergent Herbicidal Activity: Brachiaria (Brachiaria; 15 g/ha): 0; Pre-emergent Herbicidal Activity: Brachiaria (Brachiaria; 30 g/ha): 0; Pre-emergent Herbicidal Activity: Setaria (Setaria [2]; 15 g/ha): 2; Pre-emergent Herbicidal Activity: Setaria (Setaria [2]; 30 g/ha): 2
2 | COCCCCc1nc(C(F)(F)F)ccc1C(=O)C1C(=O)C2CCC(C2)C1=O (stereo not drawn) [Compound F] | 8 | 8 | 7 | 7 | 7 |  |  |  |  |  |  |  |  |  |  |  |  |  |  |  | Pre-emergent Herbicidal Activity: Corn (Corn; 15 g/ha): 0; Pre-emergent Herbicidal Activity: Corn (Corn; 30 g/ha): 0; phytotoxic effect on the crop plants (corn) (Corn; [13]): no phytotoxic effect; Pre-emergent Herbicidal Activity: Soya (Soya; 15 g/ha): 0; Pre-emergent Herbicidal Activity: Soya (Soya; 30 g/ha): 0; phytotoxic effect on the crop plants (soya) (Soya; [13]): no phytotoxic effect; Pre-emergent Herbicidal Activity: Brachiaria (Brachiaria; 15 g/ha): 0; Pre-emergent Herbicidal Activity: Brachiaria (Brachiaria; 30 g/ha): 6; Pre-emergent Herbicidal Activity: Setaria (Setaria [2]; 30 g/ha): 6
3 | CCOCCCc1nc(C(F)(F)F)ccc1C(=O)C1C(=O)C2CCC(C2)C1=O (stereo not drawn) [Compound H-15] |  |  |  |  |  | 10 | 10 | 9 | 10 | 10 | 10 | 10 | 9 | 10 | 8 | 8 | 9 | 8 | 9 | 9 | 
4 | COCCCc1nc(C(F)(F)F)ccc1C(=O)C1C(=O)C2CCCC(C2)C1=O (stereo not drawn) [Compound H-19] |  |  |  |  |  |  |  |  |  |  |  |  | 8 | 9 | 9 | 8 | 8 | 8 | 9 | 8 | 
5 | COCCCc1nc(C(F)F)ccc1C(=O)C1C(=O)C2CCC(C)(C2)C1=O (stereo not drawn) [Compound H-1] |  |  |  |  |  | 9 | 9 | 9 | 9 | 9 | 10 | 7 | 9 | 8 | 9 | 9 | 9 | 8 | 8 | 8 | 
6 | COCc1nc(C(F)(F)F)ccc1C(=O)C1C(=O)C2CCC(C2)C1=O (stereo not drawn) [B] | 8 | 9 | 6 | 8 | 10 |  |  |  |  |  |  |  |  |  |  |  |  |  |  |  | Pre-emergent Herbicidal Activity: Echinochloa (Echinochloa; 15 g/ha): 9; Pre-emergent Herbicidal Activity: Corn (Corn; 15 g/ha): 1; Pre-emergent Herbicidal Activity: Corn (Corn; 30 g/ha): 1; Pre-emergent Herbicidal Activity: Soya (Soya; 15 g/ha): 6; Pre-emergent Herbicidal Activity: Soya (Soya; 30 g/ha): 8; Pre-emergent Herbicidal Activity: Brachiaria (Brachiaria; 15 g/ha): 6; Pre-emergent Herbicidal Activity: Brachiaria (Brachiaria; 30 g/ha): 9; Pre-emergent Herbicidal Activity: Setaria (Setaria [2]; 15 g/ha): 8; Pre-emergent Herbicidal Activity: Setaria (Setaria [2]; 30 g/ha): 9
7 | COCCc1nc(C(F)(F)F)ccc1C(=O)C1C(=O)C2CCC(C2)C1=O (stereo not drawn) [A] | 9 | 9 | 7 | 7 | 9 |  |  |  |  |  |  |  |  |  |  |  |  |  |  |  | Pre-emergent Herbicidal Activity: Echinochloa (Echinochloa; 15 g/ha): 4; Pre-emergent Herbicidal Activity: Corn (Corn; 15 g/ha): 0; Pre-emergent Herbicidal Activity: Corn (Corn; 30 g/ha): 0; Pre-emergent Herbicidal Activity: Soya (Soya; 15 g/ha): 2; Pre-emergent Herbicidal Activity: Soya (Soya; 30 g/ha): 5; Pre-emergent Herbicidal Activity: Brachiaria (Brachiaria; 15 g/ha): 6; Pre-emergent Herbicidal Activity: Brachiaria (Brachiaria; 30 g/ha): 7; Pre-emergent Herbicidal Activity: Setaria (Setaria [2]; 15 g/ha): 6; Pre-emergent Herbicidal Activity: Setaria (Setaria [2]; 30 g/ha): 7
8 | COCCCc1nc(C(F)(F)F)ccc1C(=O)C1C(=O)C2CCC(C)(C2)C1=O (stereo not drawn) [Compound H-16] |  |  |  |  |  | 10 | 8 | 10 | 10 | 10 | 9 | 8 | 9 | 10 | 9 | 9 | 10 | 10 | 10 | 10 | 
9 | CCC12CCC(C1)C(=O)C(C(=O)c1ccc(C(F)(F)F)nc1CCCOC)C2=O (stereo not drawn) [Compound H-17] |  |  |  |  |  |  |  |  |  |  |  |  | 9 | 8 | 7 | 7 | 8 | 8 | 9 | 9 | 
10 | COCCCc1nc(C(F)F)ccc1C(=O)C1C(=O)C2CCCC(C2)C1=O (stereo not drawn) [Compound H-21] |  |  |  |  |  | 7 | 7 | 10 | 9 | 10 | 10 | 10 | 8 | 9 | 9 | 8 | 9 | 8 | 9 | 8 | 
11 | COCCCc1nc(C(F)F)ccc1C(=O)C1C(=O)C2CCC(CC2)C1=O (stereo not drawn) [Compound H-4] |  |  |  |  |  | 9 | 9 | 9 | 9 | 9 | 9 | 7 | 8 | 7 | 9 | 7 | 9 | 7 | 9 | 8 | 
